Results published in ChEMBL document CHEMBL2321873, “1-(4-Phenylpiperazin-1-yl)-2-(1H-pyrazol-1-yl)ethanones as novel CCR1 antagonists” (Bioorg Med Chem Lett, 2013).
Active and inactive are the calls of the source.

What was measured:
[1] = target: T1, C-X-C chemokine receptor type 5 (Homo sapiens) (UniProt P32302); test: Antagonist activity at CXCR5 (unknown origin) assessed as inhibition of chemotaxis at 10 uM
T1 sequence (whole entry): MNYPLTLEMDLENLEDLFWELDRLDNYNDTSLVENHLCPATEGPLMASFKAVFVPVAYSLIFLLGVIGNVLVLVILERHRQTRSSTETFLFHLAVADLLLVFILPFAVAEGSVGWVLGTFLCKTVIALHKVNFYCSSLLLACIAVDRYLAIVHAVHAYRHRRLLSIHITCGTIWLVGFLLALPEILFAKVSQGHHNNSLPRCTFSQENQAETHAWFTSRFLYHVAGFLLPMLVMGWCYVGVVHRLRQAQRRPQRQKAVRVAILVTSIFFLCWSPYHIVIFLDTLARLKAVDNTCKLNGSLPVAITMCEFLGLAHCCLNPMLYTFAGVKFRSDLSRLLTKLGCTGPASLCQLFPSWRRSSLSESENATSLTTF

[2] = target: C-C chemokine receptor type 2 (Homo sapiens) (UniProt P41597); test: Binding affinity to CCR2 (unknown origin) at 10 uM by radioligand displacement assay
[3] = target: T2, C-C chemokine receptor-like 2 (Homo sapiens) (UniProt O00421); test: Antagonist activity at CCR11 (unknown origin) assessed as inhibition of calcium flux at 10 uM; assay type: functional
T2 sequence (whole entry): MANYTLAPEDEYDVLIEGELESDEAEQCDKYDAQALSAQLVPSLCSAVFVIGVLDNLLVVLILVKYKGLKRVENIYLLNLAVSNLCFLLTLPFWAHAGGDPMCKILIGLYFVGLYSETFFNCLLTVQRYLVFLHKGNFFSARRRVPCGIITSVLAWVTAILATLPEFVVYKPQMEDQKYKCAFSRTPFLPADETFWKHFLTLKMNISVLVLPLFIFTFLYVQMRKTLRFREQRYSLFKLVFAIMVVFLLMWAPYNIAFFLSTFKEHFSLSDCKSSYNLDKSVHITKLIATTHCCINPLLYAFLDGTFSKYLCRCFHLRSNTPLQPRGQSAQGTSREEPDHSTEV

[4] = target: T3, C-C chemokine receptor type 9 (Homo sapiens) (UniProt P51686); test: Antagonist activity at CCR9 (unknown origin) assessed as inhibition of chemotaxis at 10 uM
T3 sequence (whole entry): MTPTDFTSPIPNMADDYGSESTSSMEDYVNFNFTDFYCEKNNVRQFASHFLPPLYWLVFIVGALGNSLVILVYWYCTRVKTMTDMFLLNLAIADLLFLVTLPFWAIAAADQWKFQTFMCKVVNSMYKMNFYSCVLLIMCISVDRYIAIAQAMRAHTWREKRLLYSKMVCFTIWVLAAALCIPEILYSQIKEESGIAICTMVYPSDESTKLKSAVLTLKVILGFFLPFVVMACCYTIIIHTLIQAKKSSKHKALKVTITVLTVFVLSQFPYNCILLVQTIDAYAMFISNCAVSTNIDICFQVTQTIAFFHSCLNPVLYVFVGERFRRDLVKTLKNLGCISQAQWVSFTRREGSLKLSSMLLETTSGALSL

[5] = target: T4, C-C chemokine receptor type 3 (Homo sapiens) (UniProt P51677); test: Binding affinity to CCR3 (unknown origin) at 10 uM by radioligand displacement assay
T4 sequence (whole entry): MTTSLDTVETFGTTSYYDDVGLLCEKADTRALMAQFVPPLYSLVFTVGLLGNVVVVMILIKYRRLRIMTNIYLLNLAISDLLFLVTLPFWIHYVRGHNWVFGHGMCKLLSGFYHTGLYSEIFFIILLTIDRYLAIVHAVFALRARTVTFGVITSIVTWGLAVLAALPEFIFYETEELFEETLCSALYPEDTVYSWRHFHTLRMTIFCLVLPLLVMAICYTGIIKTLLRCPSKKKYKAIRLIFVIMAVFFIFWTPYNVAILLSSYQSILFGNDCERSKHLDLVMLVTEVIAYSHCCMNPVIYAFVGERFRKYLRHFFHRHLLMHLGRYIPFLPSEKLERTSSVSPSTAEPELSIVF

[6] = target: C-C chemokine receptor type 2 (Homo sapiens) (UniProt P41597); test: Antagonist activity at CCR2 (unknown origin) assessed as inhibition of chemotaxis at 10 uM
[7] = target: T5, C-X-C chemokine receptor type 2 (Homo sapiens) (UniProt P25025); test: Binding affinity to CXCR2 (unknown origin) at 10 uM by radioligand displacement assay
T5 sequence (whole entry): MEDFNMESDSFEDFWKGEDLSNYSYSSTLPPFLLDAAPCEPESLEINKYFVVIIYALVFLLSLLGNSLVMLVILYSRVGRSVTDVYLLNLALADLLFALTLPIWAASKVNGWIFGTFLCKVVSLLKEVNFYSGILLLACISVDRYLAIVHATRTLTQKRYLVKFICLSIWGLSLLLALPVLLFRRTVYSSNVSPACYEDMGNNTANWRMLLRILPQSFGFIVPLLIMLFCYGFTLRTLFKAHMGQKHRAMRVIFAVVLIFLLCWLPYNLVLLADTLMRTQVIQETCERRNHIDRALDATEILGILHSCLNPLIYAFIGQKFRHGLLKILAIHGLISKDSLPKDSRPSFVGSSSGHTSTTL

[8] = target: Atypical chemokine receptor 3 (Homo sapiens) (UniProt P25106); test: Antagonist activity at CXCR7 (unknown origin) assessed as inhibition of chemotaxis at 10 uM
[9] = target: C-X-C chemokine receptor type 6 (Homo sapiens) (UniProt O00574); test: Binding affinity to CXCR6 (unknown origin) at 10 uM by radioligand displacement assay
[10] = target: T6, C-C chemokine receptor type 6 (Homo sapiens) (UniProt P51684); test: Binding affinity to CCR6 (unknown origin) at 10 uM by radioligand displacement assay
T6 sequence (whole entry): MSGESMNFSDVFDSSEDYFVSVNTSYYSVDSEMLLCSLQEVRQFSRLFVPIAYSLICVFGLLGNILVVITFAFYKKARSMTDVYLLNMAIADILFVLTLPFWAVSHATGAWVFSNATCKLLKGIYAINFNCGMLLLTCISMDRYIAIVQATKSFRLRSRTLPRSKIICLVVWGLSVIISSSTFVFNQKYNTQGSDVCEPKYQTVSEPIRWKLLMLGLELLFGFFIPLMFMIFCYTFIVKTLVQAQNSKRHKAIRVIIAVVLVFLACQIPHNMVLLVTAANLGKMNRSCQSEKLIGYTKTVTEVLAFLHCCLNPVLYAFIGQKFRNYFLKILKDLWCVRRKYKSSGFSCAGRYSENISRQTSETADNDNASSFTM

C-C chemokine receptor type 2 (Homo sapiens), sequence (P41597 whole entry, looked up): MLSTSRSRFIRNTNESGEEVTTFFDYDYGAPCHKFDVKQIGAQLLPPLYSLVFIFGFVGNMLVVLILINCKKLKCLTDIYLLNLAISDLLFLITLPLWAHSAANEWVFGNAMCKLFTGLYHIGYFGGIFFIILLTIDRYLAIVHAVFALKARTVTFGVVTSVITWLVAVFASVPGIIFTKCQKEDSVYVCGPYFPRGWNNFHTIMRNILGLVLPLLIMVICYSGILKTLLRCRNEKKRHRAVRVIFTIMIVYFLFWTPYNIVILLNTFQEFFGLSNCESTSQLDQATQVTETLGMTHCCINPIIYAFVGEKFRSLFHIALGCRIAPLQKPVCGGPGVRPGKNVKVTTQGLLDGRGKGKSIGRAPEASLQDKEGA
C-X-C chemokine receptor type 6 (Homo sapiens), sequence (O00574 whole entry, looked up): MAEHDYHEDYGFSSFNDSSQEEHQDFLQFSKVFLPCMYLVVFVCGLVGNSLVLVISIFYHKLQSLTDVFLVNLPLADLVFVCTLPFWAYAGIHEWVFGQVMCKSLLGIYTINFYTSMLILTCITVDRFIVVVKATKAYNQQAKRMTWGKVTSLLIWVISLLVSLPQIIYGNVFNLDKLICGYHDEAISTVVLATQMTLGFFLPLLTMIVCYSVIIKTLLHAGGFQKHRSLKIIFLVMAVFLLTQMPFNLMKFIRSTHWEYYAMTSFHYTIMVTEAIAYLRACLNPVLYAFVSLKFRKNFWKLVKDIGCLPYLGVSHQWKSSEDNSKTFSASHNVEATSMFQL
Atypical chemokine receptor 3 (Homo sapiens), sequence (P25106 whole entry): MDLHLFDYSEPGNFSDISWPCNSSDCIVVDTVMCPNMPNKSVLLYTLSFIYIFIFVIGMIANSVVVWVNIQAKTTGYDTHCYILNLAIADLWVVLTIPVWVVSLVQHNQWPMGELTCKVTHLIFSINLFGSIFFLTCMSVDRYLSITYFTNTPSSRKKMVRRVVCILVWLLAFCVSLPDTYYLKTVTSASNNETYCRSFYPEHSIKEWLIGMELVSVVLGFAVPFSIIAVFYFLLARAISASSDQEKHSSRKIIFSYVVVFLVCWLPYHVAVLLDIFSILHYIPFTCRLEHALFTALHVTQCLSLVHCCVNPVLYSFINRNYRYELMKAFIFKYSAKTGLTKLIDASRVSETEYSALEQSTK

COc1cc(N2CCN(C(=O)Cn3nc(C(F)(F)F)c(Cl)c3C)CC2)ccc1Cl
inactive: inhibition [1] | Activity [2] | inhibition [3] | inhibition [4] | Activity [5] | inhibition [6] | Activity [7] | inhibition [8] | Activity [9] | Activity [10]
